# Measured values from patent US20230096528A1, “Pharmaceutical Composition for Treatment or Prevention of Multiple Inflammatory disorders” (priority 2019, published 2023).
# How the values were obtained:
# healthy mouse = experiment: Cytokine profile and routes of administration in healthy mouse (Example 6); conditions: healthy mice
# [1] = tested on: mouse model of acute lung injury; experiment: Second modified acute lung injury plus hyperthermia study (Example 8); conditions: for Tolerability of three days of repeat dosing: mouse, in vivo
# Method: Lung lavage fluid was measured and cytokine analysis. Statistics was one-way ANOVA followed by Tukey's multiple comparison post hoc test for data with normal distribution; Kruskal-Wallis test followed by Dunn's multiple comparison post hoc test for data with skewed distribution; and the ROUT method for identifying outliers. Control or drug administered for 3 days, then LPS at 50 μL of 1 mg/ml delivered intratracheally with a Penn Century needle where a core temperature of 39 C at 24 hours post LPS and then sacrifice to measure lung lavage fluid protein concentration and serum cytokine levels.
# The same procedure was used as in Example 7. Starting three days before the induction of lung injury, groups of six CD-1 mice each were treated prophylactically with vehicle or 92.4 mg/kg denatonium acetate (DA) (administered by twice-daily (BID) oral gavage (PO)) or with 3 mg/kg DA (administered by once-daily (QD) intraperitoneal (IP) injection). On Day 0, lung injury was induced by intratracheal instillation with 50 μL of 1 mg/mL bacterial lipopolysaccharide (LPS), and hyperthermia was induced by placing the animals in a 39° C. incubator. On Day 1 (i.e., 24 hours after induction), animals were euthanized and bronchoalveolar lavage fluid (BALF) was collected. The BALF specimens were assessed for cytokine concentrations (using a multiplex bead-based assay), and protein levels, and neutrophil counts (by fluorescence-activated cell sorting (FACS)). Additionally, lungs were collected, fixed, stained with Masson's trichrome, and assessed histologically.
# [2] = tested on: murine air pouch model of inflammation; experiment: Murine air pouch model of inflammation, LPS induction (Example 2); assay type: in vivo, C57BL/6 mice
# Method: This example provides the results of investigating DA to modulate immune response in a murine air pouch model of inflammation. […] What was measured was infiltrating cell counts with air pouch exudates, IL-6 levels in air pouch exudates by an ELISA assay (R&D Systems Cat. No. M6000B), and multiple cytokine analysis (Mouse 32Plex Kit MilliporeSigma Cat. No. MCYTMAG70PMX32BK).
# Duarte et al., Current Protocols in Pharmacology, 5.6.1-5.6.8 Mar. 2012, describes “The subcutaneous air pouch is an in vivo model that can be used to study acute and chronic inflammation, the resolution of the inflammatory response, and the oxidative stress response. Injection of irritants into an air pouch in rats or mice induces an inflammatory response that can be quantified by the volume of exudate produced, the infiltration of cells, and the release of inflammatory mediators. The model presented in this unit has been extensively used to identify potential anti-inflammatory drugs.” It can be used to study localized inflammation without systemic effects. But in this case the drug was administered orally, by gavage BID.
# Test administration was 5 ml/kg body weight BID dosing with 8 hour intervals. The air pouch was created in each test BL6 mouse by sc injection of 1.5 ml/mouse of sterile air on day 0 and 1.5 ml/mouse of sterile air on day 3. Compounds (or control distilled water) were administered BID on day −2. LPS (0.75 mg/animal in 1 ml endotoxin free PBS) was administered at hour 0 or one hour after dosing with test compounds. Plasma samples were collected at termination and exudates of the air pouches for all groups. Cell count analysis and IL-6 assays were conducted at the animal facility and plasma and exudate samples were sent out for cytokine analysis.
# [3] = tested on: leptin-deficient (ob/ob) mice; experiment: Denatonium acetate on body weight in leptin-deficient (ob/ob) mice (Example 1); assay type: in vivo
# Method: This example describes an in vivo study of denatonium acetate on body weight in leptin-deficient (ob/ob) mice. Adult leptin-deficient mice (homozygote, ob/ob mice) fed with high-fat diet. There was a vehicle control group (15 mice) that were treated with distilled water by gavage BID. […] Body weights and body weight changes were determined at days 1, 3, 7, 10, 14, 21, 24 and 28. Food intake was determined on days 3, 7, 10, 14, 17, 21, […] and 28. On day 28 blood samples were taken for cytokine analysis, HbA1c, HDL, LDL, insulin, and bile acids.
# [4] = oral 92.4 mg/kg BID, vs vehicle
# [5] = 96.4 mg/kg BID gavage pre-treatment, LPS, vs vehicle
# [6] = higher dose of DA, air pouch model, LPS
# [7] = 23.1 mg/kg BID gavage, vs vehicle
# [8] = 23.1 mg/kg BID gavage, vs vehicle, no statistically significant difference
smiles,measurement,setting,value
"CC(=O)[O-].CC[N+](CC)(CC(=O)Nc1c(C)cccc1C)Cc1ccccc1 [DA, denatonium acetate]",Biomarker (cytokine) effects after iv dosing,"healthy mouse; iv bolus QD, 1 mg/kg and 3 mg/kg (either iv dose)",no biomarker (cytokine) effects
same,Side effects by route of administration,healthy mouse; seen only with iv administration (1 and 3 mg/kg QD),toxic side effects
same,Mice found dead on Day 1,"[1]; 92.4 mg/kg PO group, within 24 h after LPS instillation, also one vehicle-dosed, not attributed to test article",one
same,BALF neutrophil counts (by FACS assay),[1]; IP 3 mg/kg QD,nominal decreases
same,BALF protein concentrations,[1]; IP 3 mg/kg QD,nominal (but nonsignificant) changes
same,Number of 32 tested BALF cytokines significantly decreased compared to vehicle,[1]; IP 3 mg/kg QD,10
same,Severity of lung pathology (by histological scoring),[1]; IP 3 mg/kg QD,nominal decreases
same,G-CSF concentration in BALF,"[1]; IP 3 mg/kg QD, vs vehicle",significant decreases
same,IL2 concentration in BALF,"[1]; IP 3 mg/kg QD, vs vehicle",significant decreases
same,IL-3 concentration in BALF,"[1]; IP 3 mg/kg QD, vs vehicle",significant decreases
same,IL-4 concentration in BALF,"[1]; IP 3 mg/kg QD, vs vehicle",significant decreases
same,IL-13 concentration in BALF,"[1]; IP 3 mg/kg QD, vs vehicle",significant decreases
same,IP-10 concentration in BALF,"[1]; IP 3 mg/kg QD, vs vehicle",significant decreases
same,M-CSF concentration in BALF,"[1]; IP 3 mg/kg QD, vs vehicle",significant decreases
same,MCP-1 concentration in BALF,"[1]; IP 3 mg/kg QD, vs vehicle",significant decreases
same,MIG concentration in BALF,"[1]; IP 3 mg/kg QD, vs vehicle",significant decreases
same,eotaxin concentration in BALF,"[1]; IP 3 mg/kg QD, vs vehicle",significant decreases
same,Tolerability of three days of repeat dosing,"[1]; ip, 3 mg/kg",well-tolerated
same,Tolerability of three days of repeat dosing,"[1]; po, 92.4 mg/kg",well-tolerated
same,BALF neutrophil counts (by FACS assay),[1]; oral 92.4 mg/kg BID,nominal decreases
same,BALF protein concentrations,[1]; oral 92.4 mg/kg BID,nominal (but nonsignificant) changes
same,Number of 32 tested BALF cytokines significantly decreased compared to vehicle,[1]; oral 92.4 mg/kg BID,7
same,Severity of lung pathology (by histological scoring),[1]; oral 92.4 mg/kg BID,nominal decreases
same,IL-2 concentration in BALF,[1]; [4],significant decreases
same,IL-3 concentration in BALF,[1]; [4],significant decreases
same,IL-10 concentration in BALF,[1]; [4],significant decreases
same,IL-13 concentration in BALF,[1]; [4],significant decreases
same,MCSF concentration in BALF,[1]; [4],significant decreases
same,MIG concentration in BALF,[1]; [4],significant decreases
same,IL-6 levels in air pouch exudates,[2]; [5],significantly lower
same,Infiltrating cell count in air pouch exudates,[2]; [5],significantly lower
same,IL-1b cytokine level,[2]; [6],significant reduction
same,IL-10 cytokine level,[2]; [6],significant reduction
same,IL-17 cytokine level,[2]; [6],significant reduction
same,TNF-1a cytokine level,[2]; [6],significant reduction
same,Infiltrating cell counts in air pouch exudates following LPS induction,"[2]; pre-treatment by gavage BID, in a dose-dependent manner",decreased
same,Blood HDL level at day 28,[3]; [7],statistically significant decrease
same,Blood HbA1c levels at day 28,[3]; [7],no statistically significant difference
same,Blood LDL cholesterol levels at day 28,[3]; [7],no statistically significant difference
same,Blood bile acid levels at day 28,[3]; [7],no statistically significant difference
same,Blood insulin levels at day 28,[3]; [7],no statistically significant difference
same,Blood total cholesterol level (LDL plus HDL) at day 28,[3]; [7],almost significant decrease
same,Body weight change at day 28,[3]; [7],no statistically significant difference
same,Cumulative food consumption over 28 days,[3]; [7],no statistically significant difference
same,Fasting blood glucose level at day 28,[3]; [7],no statistically significant difference
same,GM-CSF in blood at day 28,[3]; [7],significant decreases
same,IFNγ in blood at day 28,[3]; [7],significant decreases
same,IL-5 in blood at day 28,[3]; [7],significant decreases
same,IL-10 in blood at day 28,[3]; [7],significant decreases
same,IL-12 in blood at day 28,[3]; [7],significant decreases
same,KC/CXCL1 in blood at day 28,[3]; [7],significant decreases
same,M-CSF in blood at day 28,[3]; [7],significant decreases
same,"Change in granulocyte number, pre-dose to day 28",[3]; [8],trend of increasing change
same,"Change in lymphocyte and white blood cell numbers and percentage, pre-dose to day 28",[3]; [8],trend of increasing change
same,"Change in monocyte number and percentage, pre-dose to day 28",[3]; [8],trend of increasing change
same,Average daily individual food intake,"[3]; 28 days, DA vs vehicle",no difference
same,Body weight after treatment for 28 days,[3]; compared to vehicle-treated controls,noticeable body weight decrease
